In one test the target is human recombinant FAAH (Homo sapiens (Human), UniProt O00519). The test is described as follows: In vitro inhibition of human recombinant FAAH activity (Cayman FAAH inhibitor screening kit, AMC arachidonoyl amide hydrolysis). In kind it is biochemical. From the text: In brief, FAAH hydrolyzes AMC arachidonoyl amide resulting in the release of the fluorescent product, while the inhibitor will inhibit the FAAH activity and thus reduce the fluorescent signal.

The target of the next test is human recombinant MAGL (Homo sapiens (Human), UniProt Q99685). The test is described as follows: In vitro inhibition of human recombinant MAGL activity (Cayman inhibitor screening kit, 4-nitrophenylacetate hydrolysis). In kind it is biochemical. Conditions: human recombinant MAGL; read-out: Inhibition on MAGL activity (IC50). From the text: The inhibitory effect of the synthetic chemicals on activity of human recombinant MAGL was studied using commercial inhibitor screening kit (Cayman Chemical). […] The absorbance of the yellow product can be analyzed using the plate reader. […]

Among the data in patent US12378231B2, “Small molecules as monoacylglycerol lipase (MAGL) inhibitors, compositions and use thereof” (APOGEE PHARMACEUTICALS, INC., priority 2023, dated 2025) are IC50 values, retold here.

The term IC50 denotes the concentration that inhibits the measured activity by half.

Sequence of human recombinant FAAH (O00519 whole entry): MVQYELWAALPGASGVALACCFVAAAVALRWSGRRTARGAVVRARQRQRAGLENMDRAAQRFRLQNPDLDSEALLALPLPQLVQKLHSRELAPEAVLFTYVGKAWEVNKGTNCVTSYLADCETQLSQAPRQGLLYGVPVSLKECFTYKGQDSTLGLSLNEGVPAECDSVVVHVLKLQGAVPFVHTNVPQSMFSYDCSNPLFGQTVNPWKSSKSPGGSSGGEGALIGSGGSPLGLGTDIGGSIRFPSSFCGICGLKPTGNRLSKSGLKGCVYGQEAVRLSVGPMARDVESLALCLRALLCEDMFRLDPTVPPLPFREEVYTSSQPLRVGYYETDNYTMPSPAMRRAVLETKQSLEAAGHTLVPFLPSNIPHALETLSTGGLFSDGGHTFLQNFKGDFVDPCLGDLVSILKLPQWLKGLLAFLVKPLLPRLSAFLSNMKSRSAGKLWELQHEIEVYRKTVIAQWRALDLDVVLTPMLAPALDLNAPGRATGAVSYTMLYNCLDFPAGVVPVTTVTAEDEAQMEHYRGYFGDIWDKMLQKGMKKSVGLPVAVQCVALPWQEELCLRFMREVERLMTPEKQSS
Sequence of human recombinant MAGL (Q99685 whole entry): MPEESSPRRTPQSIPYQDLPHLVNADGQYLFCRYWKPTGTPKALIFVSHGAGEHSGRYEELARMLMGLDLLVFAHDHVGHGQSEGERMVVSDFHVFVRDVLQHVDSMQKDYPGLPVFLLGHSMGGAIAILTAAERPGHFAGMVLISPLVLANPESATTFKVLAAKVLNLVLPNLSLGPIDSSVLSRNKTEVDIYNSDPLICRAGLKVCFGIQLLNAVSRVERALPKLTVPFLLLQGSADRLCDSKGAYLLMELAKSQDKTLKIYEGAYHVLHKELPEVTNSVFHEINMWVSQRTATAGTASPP

On to `O=C(OC(C(F)(F)F)C(F)(F)F)N1CCN(C(c2ccc3c(c2)COCO3)c2ccc3c(c2)COCO3)CC1` [Example 3, 1,1,1,3,3,3-hexafluoropropan-2-yl 4-(bis(4H-benzo[d][1,3]dioxin-6-yl)methyl)piperazine-1-carboxylate], for which the IC50 on human recombinant FAAH was more than 50 µM; on human recombinant MAGL, 1 to 20 nM.
The like results for `O=C(N1CCN(C(c2ccc3c(c2)COCO3)c2ccc3c(c2)COCO3)CC1)n1nnc2ccc(C(F)(F)F)cc21` [Example 44, (4-(bis(4H-benzo[d][1,3]dioxin-6-yl)methyl)piperazin-1-yl)(6-(trifluoromethyl)-1H-benzo[d][1,2,3]triazol-1-yl)methanone] were, in that order, more than 10 µM and 1 to 10 nM.
On the same counts, the results for `N#Cc1ncn(C(=O)N2CC3(CCN(C(c4ccc5c(c4)COCO5)c4ccc5c(c4)COCO5)C3)C2)n1` [Example 84, 1-(6-(bis(4H-benzo[d][1,3]dioxin-6-yl)methyl)-2,6-diazaspiro[3.4]octane-2-carbonyl)-1H-1,2,4-triazole-3-carbonitrile] are 1 to 10 µM and 1 to 10 nM.
On the same counts, the results for `O=C(N1CCN(C(c2ccc3c(c2)COCO3)c2ccc3c(c2)COCO3)CC1)n1nc2ccccn2c1=O` [Example 50, 2-(4-(bis(4H-benzo[d][1,3]dioxin-6-yl)methyl)piperazine-1-carbonyl)-[1,2,4]triazolo[4,3-a]pyridin-3(2H)-one] are more than 50 µM and more than 100 nM.
As for “1-(4-((2,3-dihydrobenzo[b][1,4]dioxin-6-yl)(4-methoxyphenyl)methyl)piperazine-1-carbonyl)-1H-benzo[d][1,2,3]triazole-6-carbonitrile and 1-(4-((2,3-dihydrobenzo[b][1,4]dioxin-6-yl)(4-methoxyphenyl)methyl)piperazine-1-carbonyl)-1H-benzo[d][1,2,3]triazole-5-carbonitrile [Example 106]”, the IC50 is approximately 10 µM at human recombinant FAAH and 1 to 10 nM at human recombinant MAGL.
On the same counts, the results for `N#Cc1ccc2c(c1)nnn2C(=O)N1CC2(CC(OC(c3ccc4c(c3)COCO4)c3ccc4c(c3)COCO4)C2)C1` [Example 60, 1-(6-(bis(4H-benzo[d][1,3]dioxin-6-yl)methoxy)-2-azaspiro[3.3]heptane-2-carbonyl)-1H-benzo[d][1,2,3]triazole-5-carbonitrile] are less than 10 µM and 10 to 100 nM.
